Experimental data as given in patent US20060014801A1, “Prevention and treatment of cognitive impairment using (R)-(-)-5-methyl-1-nicotynoyl-2-pyrazoline (MNP) and analogs” (The Johns Hopkins University, priority 2002, published 2006).

Tested on: aged impaired (AI) rats
Format: in vivo
Conditions: 50 mg/kg/day s.c. minipump
Description: Spatial memory version of the Morris water maze: Behavioral testing is conducted by an experimenter who is blind to drug treatment. Fourteen 25-27 month-old Long-Evans rats, previously characterized as cognitively impaired (AI rats), were tested in a modified version of the Morris water maze (MWM) task using the same MWM apparatus as described above. Unlike the traditional protocol wherein the platform location remained constant throughout training, the escape platform location in this spatial memory version of the task varied from day-to-day (in one of nine different positions).
AI rats were given six training trials per day with a 60-sec intertrial interval. On each training trial, the rat was released in the maze from one of four equally spaced starting positions around the perimeter of the pool. […] Following the six training trials, the rat is returned to its home cage and placed in the animal housing room. After a delay of four hours, the rat is given one additional testing trial (the “retention trial”) with the escape platform located in the same position as in the 6 training trials. The length of the rat's swim path to reach the escape platform is measured in all six training trials and the retention trial. Spatial memory in this task is measured by comparing the swim path lengths in the retention trial with the sixth (and final) training trial. […] A greater difference in performance in these two trials represents a greater degree of forgetting. After two days of acclimation to these procedures, this test protocol is given for nine consecutive days, with the position of the escape platform moved daily.
MNP enhances the cognitive performance of aged rats in the spatial memory version of the MWM: Following characterization for cognitive status with a traditional MWM protocol, impaired aged rats were assigned to one of two treatment conditions (vehicle controls or MNP). […] AI rats were pretreated with either vehicle or MNP for 9 days prior to behavioral testing. Osmotic minipumps (Alzet) were filled with either vehicle (0.9% saline) or MNP (50 mg/kg/day) and implanted subcutaneously. Initially, Alzet pumps that administer compound for one week were implanted; after seven days, these pumps (now empty) were removed and replaced with full two-week pumps allowing delivery of either MNP or saline for a total of 21 days. On Day 9 of treatment with either vehicle or MNP, MWM testing was begun. Data were collected in two replications with vehicle- and drug-treated rats represented in each. A total of 9 vehicle-treated and 5 MNP-treated rats completed the entire protocol. Several rats in both treatment groups, however, died during the execution of the study. […]

C[C@@H]1CC=NN1C(=O)c1cccnc1 [MNP, (R)-(−)-5-methyl-1-nicotinoyl-2-pyrazoline]
Difference in performance between final training trial and retention trial (4-hour delay): no significant difference in performance | Performance in retention trials vs vehicle-treated controls (4-hour delay, Days 9-11 of treatment): performed significantly better | Savings scores (memory for the platform location) vs vehicle-treated controls (Mann Whitney U test p<0.05): significantly better than vehicle-treated controls | Performance on training trials 1-6 vs vehicle group (two-way analysis of variance): no significant difference between the groups
